These results are taken from patent publication US5939583A, “Substituted 4-biphenyl-4-hydroxybutyric acid derivatives as matrix metalloprotease inhibitors” (Bayer Corporation, priority 1997, dated 1999).

Data set [1] deals with T1, Recombinant Human CHO Stromelysin (MMP-3) (Homo sapiens, UniProt P08254).
T1 construct: made in house; host or cells: CHO
It is filed as biochemical. Conditions: P218 6 μM, pH 6.5, 25 min, 37° C. The text has this:
The reaction was stopped by addition of soybean trypsin inhibitor (SBTI; 5:1 w/w to trypsin concentration).
(§1) MMP Microfluorometric Profiling Assay.

For data set [2], the target named is T2, Human Recombinant gelatinase A (MMP-2) (Homo sapiens, UniProt P08253).
T2 sequence (P08253 110-660): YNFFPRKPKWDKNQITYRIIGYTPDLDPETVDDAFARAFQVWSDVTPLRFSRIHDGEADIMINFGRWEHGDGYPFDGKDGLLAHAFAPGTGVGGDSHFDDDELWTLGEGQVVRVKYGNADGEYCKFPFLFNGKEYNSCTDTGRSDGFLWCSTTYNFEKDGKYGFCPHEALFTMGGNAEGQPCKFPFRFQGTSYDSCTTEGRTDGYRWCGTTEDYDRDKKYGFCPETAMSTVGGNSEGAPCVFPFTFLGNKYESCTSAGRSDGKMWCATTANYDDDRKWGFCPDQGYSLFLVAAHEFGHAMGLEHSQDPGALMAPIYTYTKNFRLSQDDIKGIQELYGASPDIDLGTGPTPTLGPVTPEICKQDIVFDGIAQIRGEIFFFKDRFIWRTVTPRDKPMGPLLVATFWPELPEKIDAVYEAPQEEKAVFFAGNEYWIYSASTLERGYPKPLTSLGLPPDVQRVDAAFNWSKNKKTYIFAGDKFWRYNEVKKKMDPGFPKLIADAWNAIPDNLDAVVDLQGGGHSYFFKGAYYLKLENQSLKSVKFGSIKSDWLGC
It is filed as biochemical. Particulars: P218 6 μM, pH 6.5, 25 min, 37° C.

In data set [3] the target is T3, Human recombinant gelatinase B (MMP-9) (Homo sapiens, UniProt P14780).
T3 construct: made in house; host or cells: baculovirus protein expression system
Type of data set: biochemical. Conditions: P218 6 μM, pH 6.5, 25 min, 37° C.
Text: P218 Fluorogenic Substrate
as §1

The subject of another data set is MMP-3. Particulars: WO 9615096 examples; cited from earlier work.
Data set [4] can be described thus: Stability of hydroxy acids as solids and in aged solutions (spontaneous lactonization). It is filed as physicochemical. Conditions: for stability as solids: purified crystalline hydroxy acids. The text has this:
This was evidenced by the chemical shift of H-4 on the 4S lactone at δ5.40 ppm and that on the 4R lactone at δ5.65 ppm. The hydroxy acid that converted to the 2S, 4R lactone was thus identified as the 2S, 4R hydroxy acid (Example 1) and that which converted to the 2S, 4S lactone was identified as the 2S, 4S hydroxy acid (Example 2).

The subject of data set [5] is human ovarian carcinoma xenografts. Conditions: mice bearing human ovarian carcinoma xenografts; cited from earlier work.

pIC50: −log10 of the molar value.

T1 sequence (P08254 100-477): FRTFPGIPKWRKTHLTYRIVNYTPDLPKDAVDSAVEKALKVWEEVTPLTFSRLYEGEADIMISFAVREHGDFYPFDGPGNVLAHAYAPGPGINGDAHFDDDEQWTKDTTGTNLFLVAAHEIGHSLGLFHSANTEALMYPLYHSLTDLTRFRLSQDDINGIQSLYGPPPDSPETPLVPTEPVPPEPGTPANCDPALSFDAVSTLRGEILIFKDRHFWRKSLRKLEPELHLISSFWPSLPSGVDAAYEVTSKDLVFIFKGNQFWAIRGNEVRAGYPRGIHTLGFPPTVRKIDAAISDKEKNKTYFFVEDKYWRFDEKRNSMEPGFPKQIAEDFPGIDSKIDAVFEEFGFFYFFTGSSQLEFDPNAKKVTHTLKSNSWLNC
T3 sequence (P14780 107-707 limits assumed): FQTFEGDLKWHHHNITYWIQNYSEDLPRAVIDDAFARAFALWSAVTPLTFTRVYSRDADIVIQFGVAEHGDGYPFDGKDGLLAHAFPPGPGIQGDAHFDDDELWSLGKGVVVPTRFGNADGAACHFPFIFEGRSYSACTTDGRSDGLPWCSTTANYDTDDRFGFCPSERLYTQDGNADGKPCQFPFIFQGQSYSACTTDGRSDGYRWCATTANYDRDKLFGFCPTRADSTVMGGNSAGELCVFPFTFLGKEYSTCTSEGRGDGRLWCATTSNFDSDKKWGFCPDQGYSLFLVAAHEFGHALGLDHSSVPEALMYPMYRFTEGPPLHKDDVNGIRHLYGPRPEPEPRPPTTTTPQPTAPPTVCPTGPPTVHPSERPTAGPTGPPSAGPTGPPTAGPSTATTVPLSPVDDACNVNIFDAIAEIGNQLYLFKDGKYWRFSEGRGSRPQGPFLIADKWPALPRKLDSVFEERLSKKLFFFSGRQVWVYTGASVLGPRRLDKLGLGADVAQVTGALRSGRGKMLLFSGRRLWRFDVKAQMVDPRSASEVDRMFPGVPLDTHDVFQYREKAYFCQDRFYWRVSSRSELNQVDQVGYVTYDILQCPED

For `O=C(O)[C@@H](CSc1ccccc1)C[C@@H](O)c1ccc(-c2ccc(Cl)cc2)cc1` [drawing 35], the pIC50 in data set [1] is 7.47; in data set [2], 8.55; in data set [3], 7.24.

As for `CC(C)CC(CC(O)c1ccc(-c2ccc(Cl)cc2)cc1)C(=O)O` (single isomer, unassigned) [Example 33], in the data set with MMP-3, the “potency as MMP-3 inhibitors relative to corresponding 4-biphenyl-4-oxobutyric acid derivatives” value is “less potent”.

As to `O=C(O)[C@@H](CCCc1ccccc1)CC(O)c1ccc(-c2ccc(Cl)cc2)cc1` (single isomer, unassigned) [drawing 39], the pIC50 was 5.92 in data set [1], 7.34 in data set [2] and 6.43 in data set [3].

In the case of `O=C(C[C@H](CSc1ccc(O)cc1)C(=O)O)c1ccc(-c2ccc(Cl)cc2)cc1`, the pIC50 is 6.81 in data set [1], 8.52 in data set [2] and 6.94 in data set [3].

`O=C(C[C@H](CSc1ccccc1)C(=O)O)c1ccc(-c2ccc(Cl)cc2)cc1`: the figures for the pIC50 in data set [2] and in data set [3] were 7.70 and 6.31, respectively.

As to `O=C(O)[C@@H](CSc1ccccc1)C[C@@H](O)c1ccc(-c2ccc(Cl)cc2)cc1` [Example 1, [2S, 4R]-4-[4-(4-chlorophenyl)phenyl]-4R-hydroxy-2-(phenylthiomethyl)butanoic acid], in data set [4], the “spontaneous lactonization in aged solutions” value was “slowly showed one or other of the lactones as a result of spontaneous lactonization” and the stability as solids entry is recorded as “relatively stable as solids”.

As to `O=C(O)[C@@H](CCCc1ccccc1)CC(O)c1ccc(-c2ccc(Cl)cc2)cc1` (single isomer, unassigned) [drawing 38], the values for the pIC50 in data set [1], in data set [2] and in data set [3] were 7.30, 8.03 and 7.09, respectively.

In the case of `CC(C)CC(CC(O)c1ccc(-c2ccc(Cl)cc2)cc1)C(=O)O` (single isomer, unassigned) [Example 34], the “potency as MMP-3 inhibitors relative to corresponding 4-biphenyl-4-oxobutyric acid derivatives” value in the data set on MMP-3 was “less potent”.

Turning to `O=C(C[C@H](CCCc1ccccc1)C(=O)O)c1ccc(-c2ccc(Cl)cc2)cc1`, the figures for the pIC50 in data set [1], in data set [2] and in data set [3] were 6.97, 7.47 and 6.68, respectively.

As for `O=C(O)[C@@H](CSc1ccccc1)C[C@H](O)c1ccc(-c2ccc(Cl)cc2)cc1` [Example 2, [2S, 4S]-4-[4-(4-chlorophenyl)phenyl]-4-hydroxy-2-(phenylthiomethyl)butanoic acid], in data set [4], the “spontaneous lactonization in aged solutions” value is on record as “slowly showed one or other of the lactones as a result of spontaneous lactonization” and the stability as solids result is “relatively stable as solids”.

With `O=C(O)[C@@H](CSc1ccccc1)C[C@H](O)c1ccc(-c2ccc(Cl)cc2)cc1` [drawing 36], the pIC50 in data set [1] is 5.81; in data set [2], 7.21; in data set [3], 6.05.

On to `CNC(=O)[C@H](Cc1ccccc1)NC(=O)[C@H](CC(C)C)[C@H](CSc1cccs1)C(=O)NO` [batimastat], for which the survival entry in data set [5] is listed as “prolongs the survival”.
